Blank lines part the entries; values can stand above or below the compound they belong to. Active and inactive are the calls of the source. The rule behind the calls is not given here.
What was measured:
HASMC [1] = assay: Inhibition of PDGF-induced DNA synthesis in human HASMC assessed as decrease in [3H]thymidine incorporation after 20 hrs by microplate scintillation analysis; format: functional, cell-based
HASMC [2] = assay: Cell cycle arrest in PGDF-stimulated human HASMC assessed as proportion of cells in S phase at 2 uM treated for 6 hrs prior to incubation with PDGF measured after 24 hrs by propidium iodide staining based flow cytometry (reference value: 20.8%); format: functional
[3] = biological target: Platelet-derived growth factor receptor beta (Homo sapiens) (UniProt P09619); assay: Inhibition of PDGFRbeta in human HASMC assessed as decrease in PDGF-induced PLC-gamma1 phosphorylation at 1 to 4 uM after 5 to 15 mins by Western blot analysis
Sequence of Platelet-derived growth factor receptor beta (Homo sapiens) (P09619 whole entry): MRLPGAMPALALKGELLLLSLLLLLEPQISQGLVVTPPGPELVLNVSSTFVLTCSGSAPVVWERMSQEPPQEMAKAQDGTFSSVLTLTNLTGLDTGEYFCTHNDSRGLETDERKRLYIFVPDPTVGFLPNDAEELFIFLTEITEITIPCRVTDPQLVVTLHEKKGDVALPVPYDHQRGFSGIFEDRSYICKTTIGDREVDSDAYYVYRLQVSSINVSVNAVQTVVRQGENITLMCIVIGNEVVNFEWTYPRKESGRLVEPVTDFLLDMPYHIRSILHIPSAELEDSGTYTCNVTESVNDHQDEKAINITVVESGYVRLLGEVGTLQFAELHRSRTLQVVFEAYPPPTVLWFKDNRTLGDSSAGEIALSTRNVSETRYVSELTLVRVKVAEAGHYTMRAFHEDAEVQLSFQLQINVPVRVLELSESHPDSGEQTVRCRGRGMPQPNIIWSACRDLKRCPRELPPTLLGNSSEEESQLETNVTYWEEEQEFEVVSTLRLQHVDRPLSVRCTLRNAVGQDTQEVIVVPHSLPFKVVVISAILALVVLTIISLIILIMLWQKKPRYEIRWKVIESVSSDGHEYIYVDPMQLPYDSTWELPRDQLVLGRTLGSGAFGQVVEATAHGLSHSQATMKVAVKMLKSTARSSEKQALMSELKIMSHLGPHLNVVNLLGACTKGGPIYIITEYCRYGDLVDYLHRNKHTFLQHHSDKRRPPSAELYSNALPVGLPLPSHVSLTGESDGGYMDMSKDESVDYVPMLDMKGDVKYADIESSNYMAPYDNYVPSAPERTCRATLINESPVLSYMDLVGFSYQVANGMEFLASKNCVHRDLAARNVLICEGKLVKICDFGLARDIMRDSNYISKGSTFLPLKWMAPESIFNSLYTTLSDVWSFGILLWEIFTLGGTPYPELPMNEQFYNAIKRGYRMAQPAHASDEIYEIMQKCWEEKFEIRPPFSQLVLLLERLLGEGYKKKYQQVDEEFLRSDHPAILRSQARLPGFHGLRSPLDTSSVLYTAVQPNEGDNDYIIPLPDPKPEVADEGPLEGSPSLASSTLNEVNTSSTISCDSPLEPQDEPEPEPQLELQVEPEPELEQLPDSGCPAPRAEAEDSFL

[4] = biological target: Platelet-derived growth factor receptor beta (Homo sapiens) (UniProt P09619); assay: Inhibition of PDGFRbeta in human HASMC assessed as decrease in PDGF-induced Akt phosphorylation at 1 to 4 uM after 5 to 15 mins by Western blot analysis
HASMC [5] = assay: Inhibition of PDGF-induced CDK2 expression in human HASMC at 2 to 4 uM after 24 hrs by Western blot analysis; format: functional, cell-based
HASMC [6] = assay: Inhibition of PDGF-induced cyclin E expression in human HASMC at 2 to 4 uM after 24 hrs by Western blot analysis; format: functional, cell-based
[7] = biological target: Platelet-derived growth factor receptor beta (Homo sapiens) (UniProt P09619); assay: Inhibition of PDGF-induced PDGFRbeta phosphorylation in human HASMC after 5 to 15 mins by Western blot analysis
HASMC [8] = assay: Inhibition of PDGF-induced cyclin D1 expression in human HASMC at 2 to 4 uM after 24 hrs by Western blot analysis; format: functional, cell-based
HASMC [9] = assay: Inhibition of PDGF-induced human HASMC proliferation after 24 hrs by trypan blue dye exclusion assay; format: functional, cell-based
HASMC [10] = assay: Cell cycle arrest in PGDF-stimulated human HASMC assessed as proportion of cells in S phase at 1 uM treated for 6 hrs prior to incubation with PDGF measured after 24 hrs by propidium iodide staining based flow cytometry (reference value: 20.8%); format: functional
HASMC [11] = assay: Increase in p21 expression in PDGF-stimulated human HASMC at 2 to 4 uM after 24 hrs by Western blot analysis; format: functional, cell-based
HASMC [12] = assay: Inhibition of PDGF-induced CDK4 expression in human HASMC at 2 to 4 uM after 24 hrs by Western blot analysis; format: functional, cell-based
HASMC [13] = assay: Cytotoxicity against human HASMC assessed as effect on cell migration at 4 uM after 24 hrs by modified boyden chamber analysis; format: cell-based
[14] = biological target: Platelet-derived growth factor receptor beta (Homo sapiens) (UniProt P09619); assay: Inhibition of PDGFRbeta in human HASMC assessed as decrease in PDGF-induced ERK1/2 phosphorylation at 1 to 4 uM after 5 to 15 mins by Western blot analysis
HASMC [15] = assay: Cell cycle arrest in PGDF-stimulated human HASMC assessed as proportion of cells in S phase at 4 uM treated for 6 hrs prior to incubation with PDGF measured after 24 hrs by propidium iodide staining based flow cytometry (reference value: 20.8%); format: functional
HASMC [16] = assay: Increase in p27 expression in PDGF-stimulated human HASMC at 2 to 4 uM after 24 hrs by Western blot analysis; format: functional, cell-based
HASMC [17] = assay: Inhibition of PDGF-induced actin filament dissociation in human HASMC at 2 to 4 uM after 24 hrs by Rhodamine-Phalloidin staining based fluorescence microscopy; format: functional, cell-based
HASMC [18] = assay: Cytotoxicity against human HASMC assessed as effect on cell vaibility at 0.5 to 4 uM after 24 hrs by MTT assay; format: cell-based
HASMC [19] = assay: Inhibition of PDGF-induced human HASMC migration at 4 uM after 24 hrs by modified boyden chamber analysis; format: functional, cell-based

IC50 (HASMC [1]): 710 nM
Structure (SMILES): CC(C)CCCCCC/C=C\CCCCCCC[C@H](O)[C@@H](O)[C@H](O)C#CC#CCO [PETROSIOL B]
inhibition (HASMC [1]): Dose-dependent effect

IC50 (HASMC [1]): 2200 nM
Structure (SMILES): CC(C)CCCCCCC#CCCCCCCCCC[C@@H](O)C#CC#CCO [STRONGYLODIOL D]
inhibition (HASMC [1]): Dose-dependent effect

inhibition [3]: Active
inhibition [4]: Active
inhibition [7]: Dose-dependent effect
inhibition [14]: Active
IC50 (HASMC [1]): 730 nM
Structure (SMILES): CCCCCCCC/C=C\CCCCCCC[C@H](O)[C@@H](O)[C@H](O)C#CC#CCO [PETROSIOL A]
Activity (HASMC [2]): 10.1%
inhibition (HASMC [5]): Active
inhibition (HASMC [6]): Active
inhibition (HASMC [8]): Active
IC50 (HASMC [9]): 1000 nM
inhibition (HASMC [9]): Dose-dependent effect
Activity (HASMC [10]): 17.7%
Activity (HASMC [11]): Active
inhibition (HASMC [12]): Active
Activity (HASMC [13]): Non-toxic
Activity (HASMC [15]): 7.5%
Activity (HASMC [16]): Active
inhibition (HASMC [17]): Active
Activity (HASMC [18]): Non-toxic
inhibition (HASMC [19]): Active
inhibition (HASMC [1]): Dose-dependent effect

IC50 (HASMC [1]): 1100 nM
Structure (SMILES): CC(C)CCCCCC/C=C\CCCCCCCCC[C@@H](O)C#CC#CCO [STRONGYLODIOL C]
inhibition (HASMC [1]): Dose-dependent effect

IC50 (HASMC [1]): 690 nM
Structure (SMILES): CCCCCCCCC/C=C\CCCCCCC[C@H](O)[C@@H](O)[C@H](O)C#CC#CCO [PETROSIOL D]
inhibition (HASMC [1]): Dose-dependent effect

IC50 (HASMC [1]): 720 nM
Structure (SMILES): C#C/C=C\CCCCCCCCCC/C=C\CCCCCCC[C@H](O)[C@@H](O)[C@H](O)C#CC#CCO [PETROSIOL C]
inhibition (HASMC [1]): Dose-dependent effect
